Key:
[1] = test system: Rats (male Sprague Dawley); assay: Visceral hyperalgesia model, colorectal distension after zymosan colitis; type: in vivo, rat; conditions: ± SEM
Procedure: This protocol uses barostat-controlled, isobaric colorectal distensions (CRD) in rats to evaluate the potency and efficacy of test compounds in treating visceral hyperalgesia.
Rats (male Sprague Dawley (275-350 g; CD(SD); Charles River Labs) are housed 2 to 4 animals per cage in a temperature and humidity controlled room with a 12 hr/12 hr light/dark cycle, with ad libitum access to food and water.
One day after release from quarantine, the animals were acclimated to progressively longer (30 min and 4 hr later, 45 min) periods of simple restraint in plexiglas devices (G-3, rat ECU; Braintree Scientific; Braintree Mass.). The animals were returned to their home cages overnight. The next day they were acclimated in the restraint device for 60 min in the morning. 4 hrs later, the animals were lightly anesthetized with 70% CO2:30% O2. A highly compliant, 4 cm long polyethylene balloon, lubricated with K-Y Jelly was then inserted via the anus into the rectum and distal colon. The balloon was positioned such that the aboral end was 1 cm from the anus and was secured in place by taping the balloon catheter to the base of the tail. The catheter was connected to a computerized barostat that controlled the inflation of the balloon and the resulting colorectal distension. The balloon pressure, representing intracolonic pressure, was continuously recorded.
CRD in conscious animals elicits a reflex visceromotor response consisting of contraction of the anterior abdominal wall muscles (Ness T J and Gebhart G F, Colorectal distension as a noxious visceral stimulus: physiologic and pharmacologic characterization of pseudaffective reflexes in the rat, Brain Res., (1988), 450: 153-169). Contraction of these muscles increases intraabdominal pressure and subsequently increases intracolonic pressure. Changes in intracolonic pressure are transduced through the same balloon used to deliver the CRD. The manometric endpoint has recently been reported to mimic electromyographic responses recorded from anterior abdominal wall muscles in rats (Tammpere A, Brusberg M, Axenborg J, Hirsch I, Larsson H and Lindstrom E, Evaluation of pseudo-affective responses to noxious colorectal distension in rats by manometric recordings, Pain, (2005), 116: 220-226)
Stimulus-response data were obtained by delivering two series of 20 sec ramp (15, 30, 45, 60, 75 mmHg) distensions at four-minute intervals and recording the manometric response as follows: the intracolonic pressure signal is passed through a digital 1 Hz highpass filter, rectified and the integral of the initial 15 seconds of the CRD subjected to baseline subtraction (the 15 sec immediately preceding balloon distension); the responses at each distending pressure are averaged to obtain a control stimulus/response curve for each animal. The colorectal balloons were then removed and the animals were returned to their home cages.
The following morning, one treatment group (4 animals) was injected i.p. with 10 mg/kg Compound 7 (solubilized in 5% DMSO and 5% Tween-80 in sterile saline).
One hour later, an acute colitis was induced in all treatment groups by the intracolonic instillation of a 1.5 mL bolus of 2.5% (w/v) zymosan A (from Saccharomyces cerevisiae; Sigma Chemical Co., St. Louis) in 30% ethanol (under light 70% CO2:30% O2 anesthesia). Four hours later, the animals were lightly anesthetized and the colorectal balloons inserted as on the previous day for controlled distensions. The identical CRD stimuli was applied and manometric responses were recorded and analyzed as described for the control phase of the experiment.
The animals in one treatment group (4 animals) were then subcutaneously (s.c.) dosed with 1 mg/kg morphine. As a comparator for analgesic response, animals in another treatment group (9 animals) were dosed s.c. with 3 mg/kg morphine 4 hrs after colitis initiation and 30 min prior to CRD.

CB2 receptor = molecular target: T1, CB2 receptor (Rattus norvegicus, UniProt Q9QZN9); conditions: background literature statement; cited from earlier work
T1 sequence (Q9QZN9 1-360): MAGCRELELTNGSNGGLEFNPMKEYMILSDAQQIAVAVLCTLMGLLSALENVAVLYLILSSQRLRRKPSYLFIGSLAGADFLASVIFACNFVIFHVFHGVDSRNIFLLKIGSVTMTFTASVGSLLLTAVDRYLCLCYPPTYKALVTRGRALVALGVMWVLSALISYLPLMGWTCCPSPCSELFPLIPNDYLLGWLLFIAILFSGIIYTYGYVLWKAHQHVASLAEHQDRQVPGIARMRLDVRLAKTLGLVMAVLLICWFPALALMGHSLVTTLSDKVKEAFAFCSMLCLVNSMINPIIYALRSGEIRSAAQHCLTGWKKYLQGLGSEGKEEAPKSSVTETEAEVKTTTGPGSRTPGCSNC

male Sprague-Dawley rats [2] = assay: Carrageenan model of inflammatory pain, radiant heat paw withdrawal, compound given after carrageenan (Example 2); type: in vivo, rat; conditions: read thirty minutes after compound, mean ± SEM
Procedure: (§1) To assess the ability of test compounds to reverse thermal hyperalgesia, baseline response latencies on a radiant heat (RH) paw stimulator were obtained before an intraplantar injection of carrageenan-λ (200 μL) in male Sprague-Dawley rats (250-350 g in treatment groups of […] each). Only withdrawal responses that were quick hind paw movements (with or without licking of the hind paw) were recorded. Paw movements associated with locomotion or a shifting of weight were not considered a withdrawal response.
(§2) The weight of each animal was recorded on the day of the experiment. Each animal was placed on a warm (approx. body temperature, 30° C.) glass surface and allowed to acclimate to the test chamber for approximately 10-15 minutes. A radiant thermal stimulus (beam of light) was then focused on the sole of each hind paw in turn, and an initial (baseline) response time to thermal stimuli was recorded for each animal. The stimulus intensity (radiant heat at a setting of 5 Amps) that produced 10-15 sec baseline withdrawal latencies was used and a maximum cutoff of 20 sec was imposed. The light stimulus was automatically shut off by a photoelectric relay when the foot moved or when the cut-off time limit was reached.
The experiment of Example 1 was repeated with the exception that animals were first administered 1% carrageenan (200 μL in sterile saline) subcutaneously into the sub-plantar tissue of the left hind paw to stimulate an acute inflammatory reaction.
Two and a half hours later, withdrawal latencies were assessed (‘post-Cg’). One treatment group (7 animals each) was then injected i.p. with vehicle (5% DMSO and 5% Tween-80 in sterile saline). The other treatment groups (8 animals each) were injected i.p. with 3, 10 or 30 mg/kg Compound 7. Thirty minutes after test compound administration withdrawal latencies were recorded.

male Sprague-Dawley rats [3] = assay: Carrageenan model of inflammatory pain, radiant heat paw withdrawal, compound given before carrageenan (Example 1); type: in vivo, rat; conditions: 1 h before 1% carrageenan, mean ± SEM, cutoff 20 sec
Procedure: Intraplantar injection of carrageenan (Cg) in a rodent produces pronounced hypersensitivity to both thermal and mechanical stimuli. The effects of carrageenan are maximal 2-4 hr after administration.
as §1, §2
One treatment group (8 animals each) was injected i.p. with vehicle (5% DMSO and 5% Tween-80 in sterile saline). The other treatment groups (8 animals each) were injected i.p. with 3, 10 or 30 mg/kg Compound 7.
One hour later, withdrawal latencies for the animals administered vehicle were recorded. After assessment, all animals were administered 1% carrageenan (200 μL in sterile saline) subcutaneously into the sub-plantar tissue of the left hind paw to stimulate an acute inflammatory reaction. Three hours later, the response time of the animals to the thermal stimulus was evaluated.

Male CD-1 mice = assay: Hot-plate nociception test; type: in vivo, mouse; conditions: 30 min after dosing, 48° C. hot plate, cut-off 90 sec, ± SEM
Excerpt: The hot-plate test originally described by Eddy and Leimbach (J. Pharmacol. Exp. Ther. 107:385-393, 1953) with minor modifications (e.g., O'Callaghan and Holtzman, J. Pharmacol. Exp. Ther. 192: 497-505, 1975) was used to ascertain the analgesic potential of investigated compounds. The hot plate analgesia meter used for these studies was produced by Columbus Instruments International (Columbus, Ohio).
Male CD-1 mice (30-35 g) were weighed, placed in a plastic box with wood chips and allowed to acclimate before testing. An individual mouse was placed on a 48° C. heated surface and locomotion on the plate was constrained by a glass cylinder. The time interval between placement and a shaking, licking or tucking of either hind-paw (nociceptive response) was recorded as the Baseline measurement. Animals were removed from the heated plate immediately after responding or after a maximum of 40 sec to prevent tissue damage. Each mouse was tested only once.
One treatment group (9 animals each) was then injected i.p. with vehicle (5% DMSO and 5% Tween-80 in sterile saline). The other treatment groups (8 animals each) were injected i.p. with 10 or 30 mg/kg Compound I. Thirty minutes after test compound administration, each animal was assessed for a response with a maximum cut-off of 90 sec. […]

CN1CC[C@]23c4c5ccc(O)c4O[C@H]2[C@@H](O)C=C[C@H]3[C@H]1C5 [Morphine, morphine, reference compound]
manometric response, percent of initial (control) response ([1]; 15 mmHg distension, morphine 3 mg/kg s.c. 4 hrs after colitis initiation, 30 min prior to CRD, n = 9): 96.34 ± 12.53%
manometric response, percent of initial (control) response ([1]; 30 mmHg distension, morphine 3 mg/kg s.c. 4 hrs after colitis initiation, 30 min prior to CRD, n = 9): 69.96 ± 11.21%
manometric response, percent of initial (control) response ([1]; 45 mmHg distension, morphine 3 mg/kg s.c. 4 hrs after colitis initiation, 30 min prior to CRD, n = 9): 61.69 ± 8.72%
manometric response, percent of initial (control) response ([1]; 60 mmHg distension, morphine 3 mg/kg s.c. 4 hrs after colitis initiation, 30 min prior to CRD, n = 9): 56.33 ± 8.23%
manometric response, percent of initial (control) response ([1]; 75 mmHg distension, morphine 3 mg/kg s.c. 4 hrs after colitis initiation, 30 min prior to CRD, n = 9): 63.18 ± 9.19%

CN1CCCCC1Cn1cc(C(=O)c2cc([N+](=O)[O-])ccc2I)c2ccccc21 (stereo not shown) [AM1241]
antinociception to thermal stimuli (CB2 receptor): produces antinociception to thermal stimuli

C[C@H](NS(=O)(=O)/C=C/c1n[nH]c2c1CCCC/C2=C\c1ccc(Cl)cc1)c1ccccc1 [Compound 7, (2E,8E)-2-[8-(4-chloro-benzylidene)-1,4,5,6,7,8-hexahydro-cycloheptapyrazol-3-yl]-ethenesulfonic acid [(1S)-1-phenyl-ethyl]-amide]
manometric response, percent of initial (control) response ([1]; 15 mmHg distension, 10 mg/kg i.p. 1 h before zymosan colitis, n = 4): 245.7 ± 87.76%
manometric response, percent of initial (control) response ([1]; 30 mmHg distension, 10 mg/kg i.p. 1 h before zymosan colitis, n = 4): 527.2 ± 196.8%
manometric response, percent of initial (control) response ([1]; 45 mmHg distension, 10 mg/kg i.p. 1 h before zymosan colitis, n = 4): 301.3 ± 104.2%
manometric response, percent of initial (control) response ([1]; 60 mmHg distension, 10 mg/kg i.p. 1 h before zymosan colitis, n = 4): 243.7 ± 66.53%
manometric response, percent of initial (control) response ([1]; 75 mmHg distension, 10 mg/kg i.p. 1 h before zymosan colitis, n = 4): 230.9 ± 51.95%
withdrawal latency to radiant thermal stimulus, 0.5 hrs post Cg (male Sprague-Dawley rats [2]; 3 mg/kg i.p. given 2.5 h after carrageenan): 5.30 ± 0.48 s
withdrawal latency to radiant thermal stimulus, 0.5 hrs post Cg (male Sprague-Dawley rats [2]; 10 mg/kg i.p. given 2.5 h after carrageenan): 5.33 ± 0.48 s
withdrawal latency to radiant thermal stimulus, 0.5 hrs post Cg (male Sprague-Dawley rats [2]; 30 mg/kg i.p. given 2.5 h after carrageenan): 4.53 ± 0.39 s
withdrawal latency to radiant thermal stimulus, 3 hrs post Cg administration (male Sprague-Dawley rats [3]; 3 mg/kg i.p.): 8.44 ± 1.88 s
withdrawal latency to radiant thermal stimulus, 3 hrs post Cg administration (male Sprague-Dawley rats [3]; 10 mg/kg i.p.): 7.87 ± 1.01 s
withdrawal latency to radiant thermal stimulus, 3 hrs post Cg administration (male Sprague-Dawley rats [3]; 30 mg/kg i.p.): 6.05 ± 0.83 s

O=C(N[C@H](CO)c1ccccc1)c1n[nH]c2c1CCCCC2Cc1cccc(Cl)c1 (stereo partly drawn) [Compound 1, 8-(3-chloro-benzyl)-1,4,5,6,7,8-hexahydro-cycloheptapyrazole-3-carboxylic acid [(1S)-2-hydroxy-1-phenyl-ethyl]-amide]
% MPE (percent maximal effect) (Male CD-1 mice; 10 mg/kg i.p.): 20.58 ± 9.27 % MPE
% MPE (percent maximal effect) (Male CD-1 mice; 30 mg/kg i.p.): 4.25 ± 10.65 % MPE

— patent publication US20080234347A1, “METHOD FOR TREATING CB2 RECEPTOR MEDIATED PAIN” (priority 2007, published 2008)
